Laboratory results as given in patent publication US11452718B2 (AVALYN PHARMA INC., priority 2012, dated 2022).
Like-named read-outs stand apart in the source and are kept apart here.

What was measured:
[1] = Co-solvent and surfactant effects on pirfenidone solubility; format: physicochemical
Description: Each sample was agitated at ambient temperature overnight. The samples were visually inspected and appearance recorded. Samples were centrifuged to sediment any un-dissolved material and the supernatant withdrawn via syringe through a 0.22 μm PVDF filter. […] The remaining filtered sample was split into three equal volumes in glass vials and placed at 25° C./60RH, 40° C./75RH and refrigeration. Samples are wrapped in aluminum foil to reduce light exposure. After the first night of incubation, samples are briefly visually inspected for any signs of discoloration or precipitate formation.

[2] = Pharmacokinetics and tissue distribution (lung, plasma, heart, kidney) of co-solvent formulations, bolus intratracheal aerosol; format: in vivo, Sprague-Dawley rats; settings: for concentration at 4 min / concentration at 0.1 h / concentration at 0.167 h / concentration at 0.333 h: Sprague-Dawley, rat, lung, other: intratracheal bolus aerosol (nebulizing catheter), 4 mg/kg, about 4 mg/kg pirfenidone IT bolus aerosol, read-out: Analyte in lung tissue, Mean; for concentration at 4 min: 0.0667 hr
Description: Selected formulations were prepared for pharmacokinetic analysis following aerosol delivery to rat lung. […] Formulations prepared for this study are outlined in Table 9. […] The sample was agitated until completely dissolved. […] Filtered samples were analyzed by HPLC.

[3] = Modeled human inhaled aerosol pirfenidone pharmacokinetics (FIG. 2, FIG. 5, Table 28)
Description: Aerosol deliver parameters for the FIGS. 2 and 5 models were based on high-efficiency, mesh-based nebulizer characterization (Table 12). […] Respirable delivered dose (RDD) calculated by the product of fine particle fraction (FPF, %<5 microns) and inhaled mass. […] This later dose was modeled to be delivered in 1 minute.

[4] = Aqueous formulation observations: solubility, salt addition, taste, dissolution time; format: physicochemical
Description: However, at this (and lower) concentration it was determined that salt addition was required to improve acute tolerability upon inhalation of a nebulized solution (otherwise a hypotonic solution). To address tonicity, NaCl or MgCl2 were added. […] This effect was not observed at ˜pH 8.

[5] = in vivo; cited from earlier work
[6] = 85% saturation pirfenidone formulations exposed to several temperatures (re-crystallization); format: physicochemical; settings: overnight
Text: However, in all cases pirfenidone eventually re-crystallized. This re-crystallization was not inhibited by pre-filtration of the sample.

[7] = Rubino et al., cited from earlier work
[8] = Stability assessment of pirfenidone formulations at 25° C./60RH and 40° C./75RH; format: physicochemical; settings: 25° C./60% RH, 5 mM phosphate buffer pH 6.5 plus 1% (v/v) EtOH, 2% (v/v) PG
Description: The sample was agitated until completely dissolved. Once dissolved, samples were filtered via syringe through a 0.22 μm PVDF filter.
Samples were refrigerated to reduce evaporative loss of volatile co-solvents (ethanol) during filtration and dispensing. An approximate 5.0-mL aliquot of each formulation was transferred to class A glass 6 ml containers with suitable closures (20 mm stopper). At least 8 containers are being maintained in the upright orientation at 25° C./60RH, and another 8 containers maintained at 40° C./75RH.

Cc1ccc(=O)n(-c2ccccc2)c1 [pirfenidone, 5-methyl-1-phenyl-2-(1H)-pyridone]
Pirfenidone Saturation Solubility ([1]; 4% EtOH, 0.1% CPB, 95.9% water, pH 4.9): 20.2 mg/mL
effect of co-solvent on saturation solubility ([1]; ethanol (EtOH) or propylene glycol (PG)): increase the saturation solubility
effect of co-solvents on saturation solubility ([1]; ethanol and propylene glycol together): additive effect in increasing the saturation solubility
concentration at 4 min ([2]; Group 1): 10400 ng/g
concentration at 0.1 h ([2]; Group 1): 7530 ng/g
concentration at 0.167 h ([2]; Group 1): 5360 ng/g
concentration at 0.333 h ([2]; Group 1): 4150 ng/g
concentration at 4 min ([2]; Group 2): 8530 ng/g
concentration at 0.1 h ([2]; Group 2): 5980 ng/g
concentration at 0.167 h ([2]; Group 2): 5710 ng/g
concentration at 0.333 h ([2]; Group 2): 3790 ng/g
concentration at 4 min ([2]; Group 3): 17300 ng/g
concentration at 0.1 h ([2]; Group 3): 7340 ng/g
concentration at 0.167 h ([2]; Group 3): 6160 ng/g
concentration at 4 min ([2]; Group 4): 7770 ng/g
concentration at 0.1 h ([2]; Group 4): 7500 ng/g
concentration at 0.167 h ([2]; Group 4): 5230 ng/g
concentration at 4 min ([2]; Group 5): 10700 ng/g
concentration at 0.1 h ([2]; Group 5): 5830 ng/g
concentration at 0.167 h ([2]; Group 5): 8780 ng/g
concentration at 4 min ([2]; Group 6): 7930 ng/g
concentration at 0.1 h ([2]; Group 6): 6830 ng/g
concentration at 0.167 h ([2]; Group 6): 5170 ng/g
adverse events ([2]; about 4 mg/kg intratracheal aerosol, co-solvent formulations): No adverse events were noted
lung tissue Cmax compared to the 801 mg oral pirfenidone dose ([3]; 2.5 mg RDD inhaled over 1 minute, human model): equivalent
possible achieved human lung tissue Cmax ([3]; 29 mg RDD, 3 minute tidal-inhaled nebulized dose): 43.2 mcg/gram lung tissue
plasma AUC compared to the 801 mg oral pirfenidone dose ([3]; 120 mg RDD inhaled over 5 minutes, human model): equivalent
formulation stability on addition of MgCl2 ([4]; MgCl2 added, 1:1 and 1:2 mole ratios magnesium to pirfenidone): maintained a stable, soluble solution
formulation stability on addition of NaCl ([4]; NaCl added to address tonicity, ambient storage): destabilized the formulation and resulted in precipitation upon ambient storage
acute tolerability upon inhalation of a nebulized solution ([4]; addition of NaCl): improved acute tolerability
solubility ([4]; aqueous solution, aqueous buffer, across a pH range of about 4.0 to about 8.0): 17 mg/mL
administered dose excreted in the urine [5]: about 80%
Recrystallization upon storage ([6]; 4° C., pirfenidone 23.0 mg/mL (85% saturation), 4% EtOH, 8% PG, 88% phosphate buffer (5 mM), pH 6.6): No
Recrystallization upon storage ([6]; 4° C., pirfenidone 29.5 mg/mL, 6% EtOH, 12% PG, 82% phosphate buffer (5 mM), pH 7.0): No
Recrystallization upon storage ([6]; 4° C., pirfenidone […], 8% EtOH, 16% PG, 76% phosphate buffer (5 mM), pH 7.0): No
Recrystallization upon storage ([6]; 15° C., pirfenidone 23.0 mg/mL (85% saturation), 4% EtOH, 8% PG, 88% phosphate buffer (5 mM), pH 6.6): No
Recrystallization upon storage ([6]; 15° C., pirfenidone 29.5 mg/mL, 6% EtOH, 12% PG, 82% phosphate buffer (5 mM), pH 7.0): No
Recrystallization upon storage ([6]; 15° C., pirfenidone […], 8% EtOH, 16% PG, 76% phosphate buffer (5 mM), pH 7.0): No
Recrystallization upon storage ([6]; 25° C., pirfenidone 23.0 mg/mL (85% saturation), 4% EtOH, 8% PG, 88% phosphate buffer (5 mM), pH 6.6): No
Recrystallization upon storage ([6]; 25° C., pirfenidone 27.2 mg/mL (saturation solubility), 4% EtOH, 8% PG, 88% phosphate buffer (5 mM), pH 6.6): Yes
Recrystallization upon storage ([6]; 25° C., pirfenidone 29.5 mg/mL, 6% EtOH, 12% PG, 82% phosphate buffer (5 mM), pH 7.0): No
Recrystallization upon storage ([6]; 25° C., pirfenidone 34.7 mg/mL, 6% EtOH, 12% PG, 82% phosphate buffer (5 mM), pH 7.0): Yes
Recrystallization upon storage ([6]; 25° C., pirfenidone 43.7 mg/mL, 8% EtOH, 16% PG, 76% phosphate buffer (5 mM), pH 7.0): Yes
Recrystallization upon storage ([6]; 25° C., pirfenidone […], 8% EtOH, 16% PG, 76% phosphate buffer (5 mM), pH 7.0): No
Recrystallization upon storage ([6]; −20° C., pirfenidone 23.0 mg/mL (85% saturation), 4% EtOH, 8% PG, 88% phosphate buffer (5 mM), pH 6.6, crystals re-dissolved at 25° C. without agitation): Yes^f
Recrystallization upon storage ([6]; −20° C., pirfenidone 29.5 mg/mL, 6% EtOH, 12% PG, 82% phosphate buffer (5 mM), pH 7.0, crystals re-dissolved at 25° C. without agitation): Yes^f
Recrystallization upon storage ([6]; −20° C., pirfenidone […], 8% EtOH, 16% PG, 76% phosphate buffer (5 mM), pH 7.0, crystals re-dissolved at 25° C. without agitation): Yes^f
T1/2 beta ([7]; lung tissue (derived solely from plasma T1/2), aerosol 47 mg RDD, 2009 fasted-state): 2.5 h
T1/2 beta ([7]; lung tissue (derived solely from plasma T1/2), oral 801 mg, fasted-state, 2009): 2.5 h
T1/2 beta ([7]; lung tissue (derived solely from plasma T1/2), oral 801 mg, fed-state, 2009): 2.4 h
T1/2 beta ([7]; plasma, aerosol 47 mg RDD, 2009 fasted-state): 2.5 h
T1/2 beta ([7]; plasma, oral 801 mg, fasted-state, 2009): 2.5 h
T1/2 beta ([7]; plasma, oral 801 mg, fed-state, 2009): 2.4 h
Pirfenidone (mg/mL) at Time = 0 ([8]; target pirfenidone 1 mg/mL): 1.0 mg/mL
Pirfenidone (mg/mL) at Time = 1 month ([8]; target pirfenidone 1 mg/mL): 1.0 mg/mL
Pirfenidone (mg/mL) at Time = 3 month ([8]; target pirfenidone 1 mg/mL): 1.0 mg/mL
Pirfenidone (mg/mL) at Time = 6 month ([8]; target pirfenidone 1 mg/mL): 1.0 mg/mL
Pirfenidone (mg/mL) at Time = 0 ([8]; target pirfenidone 15 mg/mL): 16.1 mg/mL
Pirfenidone (mg/mL) at Time = 1 month ([8]; target pirfenidone 15 mg/mL): 15.1 mg/mL
